How the values were obtained:
CK2α = target: T1, CK2α (Homo sapiens, UniProt P68400); experiment: Biochemical assay for inhibitors of CK2α kinase activity (ADP-Glo); conditions: 0.2 nM CK2α, 50 μM peptide substrate, 15 μM ATP, read-out: Assay 1: CK2α Enzyme IC50
T1 construct: CK2α (residues 2-329) was produced in Escherichia coli BL21 (DE3) for kinase activity screening; His6 (N, cleaved yes); made in house; host or cells: Escherichia coli BL21 (DE3)
T1 sequence (P68400 2-329): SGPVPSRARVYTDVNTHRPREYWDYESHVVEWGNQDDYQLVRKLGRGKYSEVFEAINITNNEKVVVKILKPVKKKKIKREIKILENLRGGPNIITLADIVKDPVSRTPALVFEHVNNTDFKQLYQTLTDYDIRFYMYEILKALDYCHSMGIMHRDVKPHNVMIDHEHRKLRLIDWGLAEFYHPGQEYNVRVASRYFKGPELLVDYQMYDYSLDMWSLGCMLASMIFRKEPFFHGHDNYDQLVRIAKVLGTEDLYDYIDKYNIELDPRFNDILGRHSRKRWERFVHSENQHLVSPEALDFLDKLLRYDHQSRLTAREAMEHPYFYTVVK

CLK2 = target: T2, CLK2 (Homo sapiens, UniProt P49760); experiment: Biochemical assay for inhibitors of CLK2 kinase activity (ADP-Glo); conditions: 20 nM CLK2, 50 μM peptide substrate, 100 μM ATP, read-out: Assay 2: CLK2 Enzyme IC50
T2 construct: purchased Carna Biosciences 04-127
T2 sequence (P49760 whole entry): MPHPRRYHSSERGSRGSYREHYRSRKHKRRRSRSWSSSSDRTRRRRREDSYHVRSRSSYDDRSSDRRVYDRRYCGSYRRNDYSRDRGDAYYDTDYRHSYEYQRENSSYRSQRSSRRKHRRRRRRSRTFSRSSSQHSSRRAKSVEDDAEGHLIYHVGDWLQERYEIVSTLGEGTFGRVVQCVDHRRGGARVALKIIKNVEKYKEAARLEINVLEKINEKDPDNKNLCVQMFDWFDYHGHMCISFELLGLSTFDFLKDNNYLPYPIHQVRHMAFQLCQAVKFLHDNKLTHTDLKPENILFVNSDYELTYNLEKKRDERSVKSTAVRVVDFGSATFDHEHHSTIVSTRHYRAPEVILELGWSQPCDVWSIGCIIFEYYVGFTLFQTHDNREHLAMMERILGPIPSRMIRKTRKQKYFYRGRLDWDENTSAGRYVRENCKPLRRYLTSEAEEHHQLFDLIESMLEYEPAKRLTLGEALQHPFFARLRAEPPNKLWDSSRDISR

intracellular CK2α = target: T3, intracellular CK2α (Homo sapiens, UniProt P19784); experiment: Cell-based NanoBRET assay for inhibitor binding to intracellular CK2α; conditions: HCT116 cells transiently transfected with CSNK2A2-NanoLuc fusion vector; Tracer K-5; 2 h; read-out: Assay 3: NanoBRET ™ assay for binding to intracellular CK2α
T3 construct: host or cells: HCT116 (ATCC CCL-247)
T3 sequence (P19784 whole entry, the tested form may be a part): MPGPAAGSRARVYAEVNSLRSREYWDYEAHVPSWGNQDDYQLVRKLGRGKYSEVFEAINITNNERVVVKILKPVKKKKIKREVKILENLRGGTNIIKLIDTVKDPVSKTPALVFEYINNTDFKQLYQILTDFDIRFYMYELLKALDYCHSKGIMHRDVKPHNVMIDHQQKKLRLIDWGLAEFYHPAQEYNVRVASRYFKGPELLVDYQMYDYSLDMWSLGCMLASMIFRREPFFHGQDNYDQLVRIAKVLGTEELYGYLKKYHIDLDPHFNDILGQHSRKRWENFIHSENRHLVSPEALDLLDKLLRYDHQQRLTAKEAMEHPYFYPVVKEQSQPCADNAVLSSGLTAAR
Method in brief: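 Living cells expressing NanoLuc-CK2α fusion were given a fixed tracer concentration, and compounds competitively displaced the reversibly bound tracer. Donor (450 nm) and acceptor (610 or 630 nm) emissions were read; BRET ratio = (acceptor/donor)×1,000, giving apparent intracellular affinity.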

Row | SMILES | IC50 (CK2α) [µM] | IC50 (CLK2) [µM] | IC50 (intracellular CK2α) [µM]
1 | CNc1n[nH]c2cc(-n3cnnc3)cc(NCCCNC(=O)CCNCc3ccc(OC(F)(F)F)c(Cl)c3)c12 [Example 191, 3-((3-chloro-4-(trifluoromethoxy)benzyl)amino)-N-(3-((3-(methylamino)-6-(4H-1,2,4-triazol-4-yl)-1H-indazol-4-yl)amino)propyl)propanamide] | 0.00057 | 0.133 | 0.842
2 | C[C@@H](CCCOCCNc1cc(-n2cnnc2)cc2[nH]ncc12)NCc1cc(CO)cc(OC(F)(F)F)c1 [Example 192, (S)-(3-(((5-(2-((6-(4H-1,2,4-triazol-4-yl)-1H-indazol-4-yl)amino)ethoxy)pentan-2-yl)amino)methyl)-5-(trifluoromethoxy)phenyl)methanol] | 0.0106 | 0.665 | 0.377
3 | C[C@@H](CCCOCCNc1cc(-c2cnnc(O)c2)cc2[nH]ncc12)NCc1cc(CO)cc(OC(F)(F)F)c1 [Example 193, (S)-5-(4-((2-((4-((3-(hydroxymethyl)-5-(trifluoromethoxy)benzyl)amino)pentyl)oxy)ethyl)amino)-1H-indazol-6-yl)pyridazin-3-ol] | 0.00121 | 0.355 | 0.0871
4 | C[C@@H](CCCOCCNc1cc(-c2cnnc(O)c2)cc2[nH]ncc12)NCc1cc(CC#N)cc(OC(F)(F)F)c1 [Example 194, (S)-2-(3-(((5-(2-((6-(6-hydroxypyridazin-4-yl)-1H-indazol-4-yl)amino)ethoxy)pentan-2-yl)amino)methyl)-5-(trifluoromethoxy)phenyl)acetonitrile] | 0.00076 | 0.195 | 0.0149
5 | C[C@@H](CCCOCCNc1cc(-c2cnnc(O)c2)cc2[nH]ncc12)NCc1cc(Cc2cnco2)cc(OC(F)(F)F)c1 [Example 195, (S)-5-(4-((2-((4-((3-(oxazol-5-ylmethyl)-5-(trifluoromethoxy)benzyl)amino)pentyl)oxy)ethyl)amino)-1H-indazol-6-yl)pyridazin-3-ol] | 0.00041 | 0.227 | 0.0214
6 | C[C@@H](CCCOCCNc1cc(-c2cnoc2)cc2[nH]ncc12)NCc1cc(OC(F)(F)F)cc(C(N)=O)c1 [Example 196, (S)-3-(((5-(2-((6-(isoxazol-4-yl)-1H-indazol-4-yl)amino)ethoxy)pentan-2-yl)amino)methyl)-5-(trifluoromethoxy)benzamide] | 0.0124 | 0.301 | 0.0547
7 | O=C(O)c1cc(NCCOCCCCNCc2cc(F)c(OC(F)(F)F)c(F)c2)c2cn[nH]c2c1 [Example 197, 4-((2-(4-((3,5-difluoro-4-(trifluoromethoxy)benzyl)amino)butoxy)ethyl)amino)-1H-indazole-6-carboxylic acid] | > 1 | > 50 | > 3
8 | O=C(O)Cc1cc(NCCOCCCCNCc2cc(F)c(OC(F)(F)F)c(F)c2)c2cn[nH]c2c1 [Example 198, 2-(4-((2-(4-((3,5-difluoro-4-(trifluoromethoxy)benzyl)amino)butoxy)ethyl)amino)-1H-indazol-6-yl)acetic acid] | 0.0726 | > 50 | > 3
9 | OCCOc1cc(CNC2CC(COCCOc3cc(-c4cnnc(O)c4)cc4[nH]ncc34)C2)cc(OC(F)(F)F)c1 (stereo not drawn) [Example 199, 5-(4-(2-((3-((3-(2-hydroxyethoxy)-5-(trifluoromethoxy)benzyl)amino)cyclobutyl)methoxy)ethoxy)-1H-indazol-6-yl)pyridazin-3-ol] | 0.0215 | 1.21 | 1.94
10 | OCc1cc(CNC2CC(COCCOc3cc(-c4cnnc(O)c4)cc4[nH]ncc34)C2)cc(OC(F)(F)F)c1 (stereo not drawn) [Example 200] | 0.0382 | 0.594 | 2.96
11 | O=C(O)CCc1cc(NCCOCCCCNCc2cc(F)c(OC(F)(F)F)c(F)c2)c2cn[nH]c2c1 [Example 201, 3-(4-((2-(4-((3,5-difluoro-4-(trifluoromethoxy)benzyl)amino)butoxy)ethyl)amino)-1H-indazol-6-yl)propanoic acid] | 0.00087 | 7.83 | 0.142
